{"source": "patent US12435308B2", "about": "“Immunomodulation by amniotic fluid mesenchymal stem cells” (Amniotics AB, priority 2020, dated 2025)", "key": {"[1]": {"test_system": "human PBMCs activated with anti-CD3/anti-CD28", "assay": "PBMC:MSC co-culture ex vivo assay, FACS analysis (CFSE proliferation)", "description": "(§1) For ex vivo analysis, freshly isolated human PBMCs, pooled from three donors, were activated with anti-CD3/anti-CD28 at 10 μg/ml and 5 μg/ml respectively in presence of MSCs ex vivo for 24-72 hours. Following activation, cells were analyzed for effects on cellular composition and cell proliferation using CFSE. In addition, supernatants were analyzed for cytokine levels using Luminex.\n(§2) In this example, Peripheral Blood Mononuclear Cells (PBMCs) were isolated from leucocyte concentrate from three different donors (acquired from Blodcentralen, Lunds Universitetssjukhus, Lund, Sweden) through gradient centrifugation using Ficoll. Red blood cells (RBCs) were lysed using lysis buffer (3 min, RT), cells were washed and the isolated PBMCs were pooled. Cell concentration was determined using a Scepter cell counter (Millipore Merck, MA, USA). Cells were diluted to 1×10^7 cells/ml in PBS. Pooled PBMCs were split into 2 different tubes. Pool one was stained with CFSE at 5 μM for 5 minutes (dark, RT). CFSE stained cells were washed with an equal volume of FBS to stop the reaction and washed again with PBS. Pool 2 was left in PBS.\n(§3) All cells (PBMCs and MSCs) were diluted in two different cell culture media (M3 and M4) at 2*10^6 cells/ml. Media was supplemented with anti-CD28 at 5 μg/ml. Cells were added to anti-CD3 (10 μg/ml) coated U bottom cell culture plates according to layout below, 200 μl/well in different PBMC:MSC ratios (1:10, 1:5, 1:2.5, 1:0 and 0:1).\n(§4) Included were also controls (stimulated and unstimulated PBMCs) and two reference drugs, e.g., cyclosporine (CsA) and Prednisolone. When plating controls, cells were spun down and diluted in media 3 or 4 at 4*10^6 cells/ml. 100 μl PBMCs were added per well. CsA was added at a final concentration of 10 μg/ml and Prednisolone was added at a final concentration of 125 nM. Medium was added to unstimulated control wells. Control cells (AD-MSC) were also analyzed. Cells were incubated for 24-72 hours at 37° C., 5% CO2.\nTo continue with this example, after 72 hours of incubation, CFSE stained cells were stained with CD4, CD8, CD80, CD206 and CD163. Briefly, cells were transferred to V bottom plates, centrifuged at 360×g for 2 min. Cells were washed in PBS, centrifuged at 360×g for 2 min at 4° C. Supernatant was flicked off and surface markers were added. Cells were incubated at +4° C. for 20 minutes. After incubation, cells were washed 1× in PBS, centrifuged at 360×g for 2 min at 4° C. Cells were resuspended in PBS and analyzed using flow cytometry. Compensation was performed using beads—AbC Total Compensation capture beads and negative beads. Since compensation was done using beads, FSC and SSC were changed before analyzing samples and adjusted to suit cells.\nThe inhibitory effect was calculated according to the two formulas below: […]"}, "[2]": {"test_system": "human PBMCs activated with anti-CD3/anti-CD28", "assay": "PBMC:MSC co-culture ex vivo assay, FACS analysis (cell composition)", "description": "as §1, §2, §3, §4\nFollowing 24 hours of incubation, cells in FACS/Luminex plates were stained with CD73, CD4, CD8, CD80, CD206, CD163 and PD-1. Briefly, cells were transferred to V bottom plates and centrifuged at 360×g for 2 min. Supernatant was transferred to a storage plate and put in −20° C. until analysis using Luminex. Cells were washed in PBS, centrifuged at 360×g for 2 min at 4° C. Supernatant was flicked off and surface markers were added. Cells were incubated at +4° C. for 20 minutes (dark). After incubation, cells were washed 1× in PBS, centrifuged at 360×g for 2 min at 4° C. Cells were resuspended in PBS and analyzed using the Attune Nxt flow cytometer. Compensation was performed using beads—AbC Total Compensation capture beads and negative beads. Since compensation was done using beads, FSC and SSC were changed before analyzing samples and adjusted to suit cells."}, "[3]": {"settings": "CFSE plates, 72 hours of incubation"}}, "data": [{"smiles": "C[C@]12C=CC(=O)C=C1CC[C@@H]1[C@@H]2[C@@H](O)C[C@@]2(C)[C@H]1CC[C@]2(O)C(=O)CO", "note": "[Prednisolone]", "values": [{"measurement": "effect on cytotoxic T cells", "setting": "[1]", "result": "no effect"}, {"measurement": "effect on M1 expression level", "setting": "[1]; [3]", "result": "no effect"}, {"measurement": "effect on M2 expression level", "setting": "[1]; [3]", "result": "no effect"}, {"measurement": "effect on T helper cells", "setting": "[1]; [3]", "result": "no effect"}, {"measurement": "% cytotoxic T cells (CD8+ lymphocytes)", "setting": "[2]", "result": "lower levels"}, {"measurement": "expression level of CD73+M1", "setting": "[2]; 24 hours of incubation", "result": "lower expression level"}, {"measurement": "expression level of CD73+M2", "setting": "[2]; 24 hours of incubation", "result": "lower expression level"}, {"measurement": "% T helper cells (CD4+ lymphocytes)", "setting": "[2]; 24 hours of incubation, versus control", "result": "higher levels"}, {"measurement": "macrophage polarization (shift towards M2)", "setting": "[2]; assay controls, cell composition", "result": "shift towards M2"}]}]}
